From patent US11890287B2, “Therapeutic compounds and compositions for treating social disorders and substance use disorders” (Kinoxis Therapeutics Pty Ltd, priority 2015, dated 2024)

Test system: male Sprague Dawley rats
Test: Methamphetamine IVSA under a progressive ratio schedule
Type: in vivo, rat
Procedure: Following recovery from surgery, rats were able to self-administer intravenous METH during 2 hour sessions. At the beginning of each session, catheters were flushed with 0.1 ml heparinised saline (10 IU/ml) and were connected to the infusion line. Lever extension and house light illumination indicated the initiation of the session. […] Depression of the active lever delivered a 3 s infusion of METH (0.1 mg/kg/infusion, 50 μL), illuminated the cue light, and extinguished the house light. The house light was extinguished for a 20 second time period during which depression of the active lever had no programmed consequences. […] At the end of each session, the infusion line was disconnected and catheters were flushed with 0.2 ml of cephazolin sodium in heparinized saline solution.
Rats acquired self-administration of METH during daily 2 hour fixed ratio 1 scheduled sessions. To avoid overdose, each rat was limited to a maximum of 60 infusions per session. Rats continued under the FR-1 schedule until stable responding was met as indicated by less than 10% variability in number of infusions and active lever presses compared to the day prior. Stable self-administration baselines were achieved within 10 days, after which rats advanced to the progressive ratio schedule.
Under the progressive ratio (PR) schedule, METH infusions were delivered according to the ratio: ((5×(e^reinforcer #×0.2)−5). The number of active lever presses that were required to receive one METH infusion increased according to the following sequence: 1, 2, 4, 6, 9, 12, 15, 20, 25, 32, 40, 50, 62, 77, 95, 118, 145, 178, 219, 268 (Cornish et al., 2005). The daily PR sessions were completed after 2 hours or if an infusion had not been self-administered for 60 minutes. Rats continued with PR sessions until lever pressing stabilised, which was determined by less than 10% variability in number of infusions and active lever presses for two consecutive days. Lever pressing stabilised after 7 days. During this time, the rats were given a sham saline i.p. (1 ml/kg) injection prior to the session. […]

Compound: Cl.Cn1ncc2c1Nc1ccccc1NC2 [SOC-1]
- active lever pressing under a PR schedule (5 mg (p=0.043) and 10 mg/kg (p=0.007) IP vs vehicle): significantly reduced active lever pressing
- infusion breakpoint (10 mg/kg IP, p=0.001 vs vehicle): significant reduction
- locomotor activity (10 mg/kg IP, p=0.005 vs vehicle): significant reduction
